Results: patent publication US12569508B2, “Antimicrobial compositions and methods of use” (priority 2020, dated 2026)

Tests used:
[1] = Tobramycin transport across CFBE41o− infected with PAO1 biofilm; type: in vitro ADME, human; settings: human; nebulised; biofilm and epithelium monolayer; read-out: Papp of TOB
Description: (§1) To assess the activity and toxicity or formulations, the CFBE41o− cell line was seeded on Transwell® inserts (0.05×10^6) at the liquid-liquid interface (500 μL apical and 1500 μL basolateral) on day 0. On day 3, the apical side media was removed, and the basolateral side was replaced with 500 μL of media. On day 7, the transepithelial electrical resistance (TEER) was measured through adding 500 μL to the apical chamber of one well and replacing the basolateral side with 1500 μL. The transferred biofilm model, described above, was employed to transfer the PAO1 biofilm on top of the CFBE41o− cell line in the apical compartment of the Transwells® on day 7. After 1 h incubation, the supernatant was removed as the biofilm has settled onto the cells.
(§2) Using the Aerogen® Pro (vibrating mesh nebuliser) and nebulisation chamber, the treatments were then nebulised on top of the biofilm and CFBE41o− cell layer. […]
(§3) After TOB treatments were nebulised, at 5, 15, 30, 60, 120, 240 and 1440 minutes, 100 μL sample was taken from the basolateral compartment and replaced with fresh MEM media. The sample was then filtered through 4 mm Millex® syringe filters before LC-MS/MS analysis, as described above, to quantify the transport of TOB.

[2] = test system: CFBE41o− infected with PAO1 biofilm; assay: as above; type: in vitro ADME, human; settings: peak at 2.5 h after nebulisation
Description: as §1, §2, §3

P. aeruginosa Xen41 = assay: Chronic full-thickness wound infection model: bacterial load; type: in vivo, Balb/c mice
Description: Immediately after wounding, group 1 was inoculated with 10^7 CFU of bioluminescent P. aeruginosa strain (Xen41, PerkinElmer, Waltham, MA, USA) in 10 μL of 0.9% saline. All other mice were covered with an adhesive dressing (Opsite Flexigrid, Smith & Nephew, London, UK). All mice were given soaked food and free access to water for the study. Postoperative analgesia (0.05 mg/kg buprenorphine) was provided 10 h and 24 h post-surgery via subcutaneous administration. After inoculation, mice were imaged using IVIS Spectrum Live Animal Imaging System (PerkinElmer, Waltham, MA, USA) and then daily until sacrifice to quantity radiance (photons/s) of the bioluminescent bacteria in the wound and correlate to the infection load, as previously described (Abbott C A et al., 2013, Contributors, in Handbook of Proteolytic Enzymes, N. D. Rawlings and G. Salvesen, Editors. 2013, Academic Press. p. xxxv-xlviii). Using built-in Living Image R software, regions of interest (ROI) were selected surrounding the wound to quantify the total photon emission following established protocols (Haidari, H., et al., 2021, Acta Biomaterialia, 128: 420-434; Kopecki, Z., et al., 2009, Journal of Investigative Dermatology, 129(8): 2031-2045).
After the pilot, it was determined that a 6 mm wound+10^6 CFU P. aeruginosa infection was the appropriate model to proceed with. […]

[3] = test system: 6 mm full-thickness wound infected with P. aeruginosa; assay: Chronic full-thickness wound infection model: macroscopic and microscopic wound healing; type: in vivo, Balb/c mice
Description: Following the same procedure as above, male and female mice were wounded with a 6 mm circular full-thickness wound under anaesthesia and pain relief. […] Treatments were repeated every 24 h for three days and monitored for the bacterial burden and digital photographs. On day six, mice were sacrificed as described above. Digital photographs of the wounds that were taken daily (day zero to six) were used for the macroscopic assessment of healing using ImageJ software. The images were calibrated to a ruler to measure the wounds length, gape and surface area, as previously described (Abbott C A et al., 2013, supra). The microscopic analysis was completed with histology assessments. Following overnight fixation in 4% (v/v) formaldehyde, collected wound halves were routinely processed into paraffin, and 4 μm thick sections were cut using a semi-automated rotary microtome (HistoCore MultiCut, Leica Biosystems, Melbourne, Australia). The sections were stained for haematoxylin and eosin using established protocols (Kopecki, Z., et al., 2009, supra). Following, all sections were imaged via […] slide scanner, Hamamatsu Photonics, Japan) and analysed using NDP.view2 Viewing software (Hamamatsu Photonics, Japan) to microscopically assess the healing via measurement of wound length, gape and percentage of wound re-epithelisation following previously used protocols ([…]., et al., 2021, supra).

Q: Which results are given for `NC[C@H]1O[C@H](O[C@H]2[C@H](O)[C@@H](O[C@H]3O[C@H](CO)[C@@H](O)[C@H](N)[C@H]3O)[C@H](N)C[C@@H]2N)[C@H](N)C[C@@H]1O` [unformulated TOB, tobramycin]?
A: Papp at 1440 min, 3.32 mg/mL [1]: 1.91 ×10⁻⁶ cm/s; TOB reaching the basolateral compartment [2]: 15.8%; change in infection level compared to saline (P. aeruginosa Xen41; after each once-daily dose): no statistical change in the infection level; P. aeruginosa remaining in excised wounds (P. aeruginosa Xen41; day six, after three doses of 15 μg topical): 5×10^6 CFU; macroscopic dermal gape ([3]; day five): 88±11%; macroscopic wound area (of the original wound) ([3]; day five, after two doses): 66±13%; dermal gape (histology) ([3]; day six): 5.2±0.8 mm; macroscopic dermal gape ([3]; day six): 77±10%; macroscopic wound area (of the original wound) ([3]; day six, after three doses): 75±18%; wound length (histology) ([3]; day six, after three doses): 7.6±0.9 mm; wound reepithelization ([3]; day six, histology): 41±8%
